The record followed here is PubChem BioAssay AID1963450 (Molecular Pharmacology Branch, DTP, NCI, 2024).

“And” between values parts separate entries of the source, which are not always exact repeats. Equal entries are not always repeated.

The test system of the test is 556581-035-R-J1-PDC complex spheroid growth. Put plainly: Anticancer human tumor 556581-035-R-J1-PDC patient-derived ovarian carcinoma cell line growth inhibition [Asc]. The note with it: for viability, T/C: stronger effect = lower value. In outline:
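Complex solid-tumor spheroids incorporating human endothelial and mesenchymal stem cells received single agents or combinations over half-log dilution ranges anchored to clinical Cmax.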
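Further: spheroids exposed to agents for 7 days before viability read.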

Usually IC50 stands for the concentration at which inhibition is half-maximal. The term viability, T/C denotes the result in the treated group divided by that in the control group, in per cent. Take `COc1c(OCCCN2CCOCC2)ccc2c3n(c(=NC(=O)c4cnc(N)nc4)nc12)CCN3` + CCN1C(C(=O)NC23CCC(C(=O)O)(CC2)CC3)C(c2cccc(Cl)c2F)C2(C(=O)Nc3cc(Cl)ccc32)C12CCCCC2: the IC50 runs as follows: (curve of first compound, second compound 0.03 µM) 58.9 nM; (curve of first compound, second compound 0.0949 µM) 42.7 nM; (curve of first compound, second compound 0.3 µM) 39.4 nM; (curve of first compound, second compound 0.949 µM) 51.1 nM; (curve of first compound, second compound 3 µM) 33.3 nM. Moreover, the viability, T/C was 71.9% (second compound 0.03 µM, first compound 0.00316 µM); 65.5% (second compound 0.03 µM, first compound 0.01 µM); 59.2% (second compound 0.03 µM, first compound 0.0316 µM); 43.3% (second compound 0.03 µM, first compound 0.1 µM); 20% (second compound 0.03 µM, first compound 0.316 µM); 13.4% (second compound 0.03 µM, first compound 1 µM). Moreover, the viability, T/C (second compound 0.0949 µM, first compound 0.00316 µM) is 78.3%; the viability, T/C (second compound 0.0949 µM, first compound 0.01 µM) is 70.1%; the viability, T/C (second compound 0.0949 µM, first compound 0.0316 µM) was 51.7%; the viability, T/C (second compound 0.0949 µM, first compound 0.1 µM) was 39.3%; the viability, T/C (second compound 0.0949 µM, first compound 0.316 µM) is 25.7%; the viability, T/C (second compound 0.0949 µM, first compound 1 µM) was 13.5%. For the same compound, the viability, T/C by setting is: (second compound 0.3 µM, first compound 0.00316 µM) 76.7%; (second compound 0.3 µM, first compound 0.01 µM) 70%; (second compound 0.3 µM, first compound 0.0316 µM) 50.2%; (second compound 0.3 µM, first compound 0.1 µM) 39%; (second compound 0.3 µM, first compound 0.316 µM) 22.5%; (second compound 0.3 µM, first compound 1 µM) 15.4%. Moreover, the viability, T/C is, setting by setting: (second compound 0.949 µM, first compound 0.00316 µM) 78.3%; (second compound 0.949 µM, first compound 0.01 µM) 75.2%; (second compound 0.949 µM, first compound 0.0316 µM) 58.2%; (second compound 0.949 µM, first compound 0.1 µM) 40.2%; (second compound 0.949 µM, first compound 0.316 µM) 21.6%; (second compound 0.949 µM, first compound 1 µM) 45.8%. Besides, the viability, T/C (second compound 3 µM, first compound 0.00316 µM) is 62.2%; the viability, T/C (second compound 3 µM, first compound 0.01 µM) was 57.9%; the viability, T/C (second compound 3 µM, first compound 0.0316 µM) is 46.7%; the viability, T/C (second compound 3 µM, first compound 0.1 µM) was 45.5%; the viability, T/C (second compound 3 µM, first compound 0.316 µM) is 27.5%; the viability, T/C (second compound 3 µM, first compound 1 µM) is 14.6%.
Regarding `NC1CCC(NC2CC2c2ccccc2)CC1` (centres undefined), the viability, T/C is, setting by setting: (compound 0.000316 µM) 86.2% and 89% and 93.9%; (compound 0.001 µM) 88.5% and 105% and 92.8%; (compound 0.00316 µM) 92.3% and 95.4% and 89.9%; (compound 0.01 µM) 89.6% and 94.8% and 95.2%; (compound 0.0316 µM) 94.2% and 84.8% and 111%; (compound 0.1 µM) 87.9% and 97.2% and 85%. Further, the IC50 (curve of compound) is more than 100 nM.
Consider `Cc1nc(N2CCC3(CC2)COC(C)C3N)c(CO)nc1Sc1ccnc(N)c1Cl` (centres undefined), for which the viability, T/C was 111% (2×) and 89.8% (compound 0.00949 µM); 101% and 92.6% and 91.2% (compound 0.03 µM); 87.5% and 79.8% and 84% (compound 0.0949 µM); 81.9% and 68.8% and 83.9% (compound 0.3 µM); 62.8% and 61.9% and 56.5% (compound 0.949 µM); 44.7% and 51% and 51.8% (compound 3 µM). In addition, the IC50 (curve of compound) was 2290 nM and > 3000 nM.
Turning to `CNC(C)C(=O)NC1CN(S(=O)(=O)c2cccc(S(=O)(=O)N3CCC4CCC(C(=O)NC(c5ccccc5)c5ccccc5)N4C(=O)C(NC(=O)C(C)NC)C3)c2)CCC2CCC(C(=O)NC(c3ccccc3)c3ccccc3)N2C1=O` (centres undefined) + Cc1c(S(C)(=O)=O)c(-c2cc(F)cc(N3CCN(c4ccc(NS(=O)(=O)c5ccc(NC(CCN6CCC(C(=O)OCCCP(=O)(O)O)CC6)CSc6ccccc6)c(S(=O)(=O)C(F)(F)F)c5)cc4)CC3)c2)c(-c2ccc(Cl)cc2)n1C(C)C, the IC50 by setting is: (curve of first compound, second compound 0.1 µM) 87.3 nM; (curve of first compound, second compound 0.316 µM) 73.8 nM; (curve of first compound, second compound 1 µM) 49.9 nM; (curve of first compound, second compound 3.16 µM) 6.27 nM; (curve of first compound, second compound 10 µM) less than 3.16 nM. Moreover, the viability, T/C runs as follows: (second compound 0.1 µM, first compound 0.00316 µM) 68.6%; (second compound 0.1 µM, first compound 0.01 µM) 69.5%; (second compound 0.1 µM, first compound 0.0316 µM) 60%; (second compound 0.1 µM, first compound 0.1 µM) 48%; (second compound 0.1 µM, first compound 0.316 µM) 49.1%; (second compound 0.1 µM, first compound 1 µM) 41.1%. The viability, T/C was 60.2% (second compound 0.316 µM, first compound 0.00316 µM); 73.3% (second compound 0.316 µM, first compound 0.01 µM); 68.4% (second compound 0.316 µM, first compound 0.0316 µM); 43.7% (second compound 0.316 µM, first compound 0.1 µM); 41% (second compound 0.316 µM, first compound 0.316 µM); 26% (second compound 0.316 µM, first compound 1 µM). In addition, the viability, T/C runs as follows: (second compound 1 µM, first compound 0.00316 µM) 61.8%; (second compound 1 µM, first compound 0.01 µM) 53.2%; (second compound 1 µM, first compound 0.0316 µM) 67.3%; (second compound 1 µM, first compound 0.1 µM) 33.5%; (second compound 1 µM, first compound 0.316 µM) 28.6%; (second compound 1 µM, first compound 1 µM) 26.8%. Moreover, the viability, T/C runs as follows: (second compound 3.16 µM, first compound 0.00316 µM) 49.7%; (second compound 3.16 µM, first compound 0.01 µM) 54%; (second compound 3.16 µM, first compound 0.0316 µM) 34.7%; (second compound 3.16 µM, first compound 0.1 µM) 35.5%; (second compound 3.16 µM, first compound 0.316 µM) 24.5%; (second compound 3.16 µM, first compound 1 µM) 24.5%. For the same compound, the viability, T/C reads like this: (second compound 10 µM, first compound 0.00316 µM) 49.4%; (second compound 10 µM, first compound 0.01 µM) 35.1%; (second compound 10 µM, first compound 0.0316 µM) 42.4%; (second compound 10 µM, first compound 0.1 µM) 33.6%; (second compound 10 µM, first compound 0.316 µM) 27.8%; (second compound 10 µM, first compound 1 µM) 30.7%.
